From BindingDB's records for doi:10.1021/jm100555f (Harvard Medical School, 2010)

test: Inhibition of Bcr-Abl in mouse BA/F3 cells

Row | SMILES | EC50
1 | CCCn1cc2c(Nc3ccc(OC(F)(F)F)cc3)ncnc2n1 [2-propyl-N-(4-(trifluoromethoxy)phenyl)-2H-pyrazolo[3,4-d]pyrimidin-4-amine] | 0.16 µM
2 | CNC(=O)c1cccc(-c2cc(Nc3ccc(OC(F)(F)F)cc3)ncn2)c1 [N-methyl-3-(6-(4-(trifluoromethoxy)phenylamino)pyrimidin-4-yl)benzamide] | 0.34 µM
3 | CCCn1ncc2c(Nc3ccc(OC(F)(F)F)cc3)ncnc21 [1-propyl-N-(4-(trifluoromethoxy)phenyl)-1H-pyrazolo[3,4-d]pyrimidin-4-amine] | 0.27 µM
4 | CCn1ncc2c(Nc3ccc(OC(F)(F)F)cc3)ncnc21 [1-ethyl-N-(4-(trifluoromethoxy)phenyl)-1H-pyrazolo[3,4-d]pyrimidin-4-amine] | 0.3 µM
5 | NS(=O)(=O)c1cccc(-c2cc(Nc3ccc(OC(F)(F)F)cc3)ncn2)c1 [3-(6-(4-(trifluoromethoxy)phenylamino)pyrimidin-4-yl)benzenesulfonamide] | 0.58 µM
6 | FC(F)(F)Oc1ccc(Nc2ncnc3nn(Cc4cccnc4)cc23)cc1 [2-(pyridin-3-ylmethyl)-N-(4-(trifluoromethoxy)phenyl)-2H-pyrazolo[3,4-d]pyrimidin-4-amine] | 1.7 µM
7 | CS(=O)(=O)c1cccc(-c2cc(Nc3ccc(OC(F)(F)F)cc3)ncn2)c1 [6-(3-(methylsulfonyl)phenyl)-N-(4-(trifluoromethoxy)phenyl)pyrimidin-4-amine] | 0.39 µM
8 | NS(=O)(=O)c1ccc(-c2cc(Nc3ccc(OC(F)(F)F)cc3)ncn2)cc1 [4-(6-(4-(trifluoromethoxy)phenylamino)pyrimidin-4-yl)benzenesulfonamide] | 0.12 µM
9 | CS(=O)(=O)Nc1ccc(-c2cc(Nc3ccc(OC(F)(F)F)cc3)ncn2)cc1 [N-(4-(6-(4-(trifluoromethoxy)phenylamino)pyrimidin-4-yl)phenyl)methanesulfonamide] | 0.04 µM
10 | CCNC(=O)c1cc2c(Nc3ccc(OC(F)(F)F)cc3)ncnc2s1 [N-ethyl-4-(4-(trifluoromethoxy)phenylamino)thieno[2,3-d]pyrimidine-6-carboxamide] | 0.918 µM
11 | FC(F)(F)Oc1ccc(Nc2ncnc3c2cnn3CC2CCOC2)cc1 (centres undefined) [1-((tetrahydrofuran-3-yl)methyl)-N-(4-(trifluoromethoxy)phenyl)-1H-pyrazolo[3,4-d]pyrimidin-4-amine] | 0.69 µM
12 | FC(F)(F)Oc1ccc(Nc2cc(-c3cccc4[nH]ccc34)ncn2)cc1 [6-(1H-indol-4-yl)-N-(4-(trifluoromethoxy)phenyl)pyrimidin-4-amine] | 0.14 µM
13 | O=C(c1cc2c(Nc3ccc(OC(F)(F)F)cc3)ncnc2s1)N1CCC(O)CC1 [(4-hydroxypiperidin-1-yl)(4-(4-(trifluoromethoxy)phenylamino)thieno[2,3-d]pyrimidin-6-yl)methanone] | 1.96 µM
14 | FC(F)(F)Oc1ccc(Nc2ncnc3c2cnn3Cc2cccnc2)cc1 [1-(pyridin-3-ylmethyl)-N-(4-(trifluoromethoxy)phenyl)-1H-pyrazolo[3,4-d]pyrimidin-4-amine] | 7.15 µM
15 | O=C(NCCO)c1cc2c(Nc3ccc(OC(F)(F)F)cc3)ncnc2s1 [N-(2-Hydroxyethyl)-4-(4-(trifluoromethoxy)phenylamino)thieno[2,3-d]pyrimidine-6-carboxamide] | > 10 µM
16 | NC(=O)c1ccccc1-c1cc(Nc2ccc(OC(F)(F)F)cc2)ncn1 [2-(6-(4-(trifluoromethoxy)phenylamino)pyrimidin-4-yl)benzamide] | > 10 µM
17 | OCCn1cc2c(Nc3ccc(OC(F)(F)F)cc3)ncnc2n1 [2-(4-(4-(Trifluoromethoxy)phenylamino)-2H-pyrazolo[3,4-d]pyrimidin-2-yl)ethanol] | 1.32 µM
18 | CC(C)Cn1cc(-c2cc(Nc3ccc(OC(F)(F)F)cc3)ncn2)cn1 [6-(1-isobutyl-1H-pyrazol-4-yl)-N-(4-(trifluoromethoxy)phenyl)pyrimidin-4-amine] | 0.36 µM
19 | FC(F)(F)Oc1ccc(Nc2ncnc3n[nH]cc23)cc1 [N-(4-(trifluoromethoxy)phenyl)-1H-pyrazolo[3,4-d]pyrimidin-4-amine] | 1.3 µM
20 | Nc1cccc(-c2cc(Nc3ccc(OC(F)(F)F)cc3)ncn2)c1 [6-(3-aminophenyl)-N-(4-(trifluoromethoxy)phenyl)pyrimidin-4-amine] | 0.33 µM
21 | COC(=O)c1cc2c(Nc3ccc(OC(F)(F)F)cc3)ncnc2s1 [methyl 4-(4-(trifluoromethoxy)phenylamino)thieno[2,3-d]pyrimidine-6-carboxylateMethyl 4-(4-(Trifluoromethoxy)-phenylamino)thieno[2,3-d]pyrimidine-6-carboxylate] | 5.6 µM
22 | Cn1ccc2c(Nc3ccc(OC(F)(F)F)cc3)ncnc21 [7-methyl-N-(4-(trifluoromethoxy)phenyl)-7H-pyrrolo[2,3-d]pyrimidin-4-amine] | 6.89 µM

Second part, the compound after the results:

Row | EC50 | SMILES
23 | > 10 µM | FC(F)(F)Oc1cccc(Nc2cc(NCCN3CCOCC3)ncn2)c1 [N4-(2-morpholinoethyl)-N6-(3-(trifluoromethoxy)phenyl)pyrimidine-4,6-diamine]
24 | 0.24 µM | O=C(c1cccc(-c2cc(Nc3ccc(OC(F)(F)F)cc3)ncn2)c1)N1CCOCC1 [morpholino(3-(6-(4-(trifluoromethoxy)phenylamino)pyrimidin-4-yl)phenyl)methanone]
25 | 0.97 µM | Cc1c(NCCN2CCOCC2)ncnc1Nc1ccc(OC(F)(F)F)cc1 [5-methyl-N4-(2-morpholinoethyl)-N6-(4-(trifluoromethoxy)phenyl)pyrimidine-4,6-diamine]
26 | > 10 µM | FC(F)(F)Oc1ccc(CNc2cc(NCCN3CCOCC3)ncn2)cc1 [N4-(2-morpholinoethyl)-N6-(4-(trifluoromethoxy)benzyl)pyrimidine-4,6-diamine]
27 | 4.47 µM | FC(F)(F)Oc1ccc(Nc2cc(NCCCN3CCOCC3)ncn2)cc1 [N4-(3-morpholinopropyl)-N6-(4-(trifluoromethoxy)phenyl)pyrimidine-4,6-diamine]
28 | 0.48 µM | NC(=O)c1ccc(-c2cc(Nc3ccc(OC(F)(F)F)cc3)ncn2)cc1 [4-(6-(4-(trifluoromethoxy)phenylamino)pyrimidin-4-yl)benzamide]
29 | > 10 µM | CN(c1ccc(OC(F)(F)F)cc1)c1cc(NCCN2CCOCC2)ncn1 [N4-methyl-N6-(2-morpholinoethyl)-N4-(4-(trifluoromethoxy)phenyl)pyrimidine-4,6-diamine]
30 | > 10 µM | COc1ccc(Nc2cc(NCCN3CCOCC3)ncn2)cc1 [N4-(4-methoxyphenyl)-N6-(2-morpholinoethyl)pyrimidine-4,6-diamine]
31 | 1.8 µM | FC(F)(F)Oc1ccc(Nc2cc(N3CCOCC3)ncn2)cc1 [6-morpholino-N-(4-(trifluoromethoxy)phenyl)pyrimidin-4-amine]
32 | 0.38 µM | FC(F)(F)Oc1ccc(Nc2ncnc3c2ccn3CCN2CCOCC2)cc1 [7-(2-morpholinoethyl)-N-(4-(trifluoromethoxy)phenyl)-7H-pyrrolo[2,3-d]pyrimidin-4-amine]
33 | > 10 µM | FC(F)(F)Oc1ccc(-c2cc(NCCN3CCOCC3)ncn2)cc1 [N-(2-morpholinoethyl)-6-(4-(trifluoromethoxy)phenyl)pyrimidin-4-amine]
34 | > 10 µM | FC(F)(F)Oc1ccc(Nc2ncnc(NCCN3CCOCC3)n2)cc1 [N2-(2-morpholinoethyl)-N4-(4-(trifluoromethoxy)phenyl)-1,3,5-triazine-2,4-diamine]
